From ChEMBL document CHEMBL1201862, “PubChem BioAssay data set” (2004)
Counter-ions that a name gives are not always drawn. Active and inactive are the calls of the source.

Assays:
[1] = molecular target: Delta-type opioid receptor (Homo sapiens, UniProt P41143); assay: Counterscreen for agonists of heterodimerization of the mu 1 (OPRM1) and delta 1 (OPRD1) opioid receptors: Luminescence-based cell-based high throughput dose response assay to identify agonists of OPRD1 homodimerization. [Related pubchem assays (depositor defined):AID504326, AID504355, AID504692, AID504904, AID504905]; type: functional
Mu-type opioid receptor = Mu-type opioid receptor (Homo sapiens, UniProt P35372); assay: Counterscreen for agonists of heterodimerization of the mu 1 (OPRM1) and delta 1 (OPRD1) opioid receptors: Luminescence-based cell-based high throughput dose response assay to identify agonists of OPRM1 homodimerization.; type: functional;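 further: U2OS cells expressing OPRM1 and beta-arrestin as split beta-galactosidase partners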
[2] = molecular target: 5-hydroxytryptamine receptor 5A (Homo sapiens, UniProt P47898); assay: Counterscreen for agonists of OPRM1-OPRD1 heterodimerization: luminescence-based cell-based high throughput dose response assay to identify agonists of 5-hydroxytryptamine (serotonin) 5A receptor (HTR5A). [Related pubchem assays (depositor defined):AID504326, AID504355, AID504692, AID504904, AID504905]; type: functional
[3] = NIH-3T3 fibroblast cytotoxicity, dose response, cytotoxicity control, cell-based, fluorescence, Alamar Blue, secondary assay (AID 2327); type: functional;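 further: NIH-3T3 mouse fibroblasts cultured with fluconazole at 8 µg/mL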
[4] = C. albicans growth with fluconazole, confirmation, fluorescence, retest (AID 2467); type: functional, cell-based
[5] = molecular target: T1, Serine/threonine-protein phosphatase (Candida dubliniensis (strain CD36 / CBS 7987 / NCPF 3949 / NRRLY-17841) (Yeast), UniProt B9W6M3); assay: calcineurin pathway inhibitors in yeast reporter, dose response, S. cerevisiae, CDRE-lacZ, luminescence, secondary (AID 2388); type: functional, cell-based;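 further: yeast reporter cells carrying a calcineurin-responsive lacZ construct stimulated with calcium chloride; luminescent beta-galactosidase reporter signal in whole cells rather than isolated phosphatase activity; potency for inhibition where a drop in reporter signal means calcineurin blockade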
T1 sequence (B9W6M3 whole entry): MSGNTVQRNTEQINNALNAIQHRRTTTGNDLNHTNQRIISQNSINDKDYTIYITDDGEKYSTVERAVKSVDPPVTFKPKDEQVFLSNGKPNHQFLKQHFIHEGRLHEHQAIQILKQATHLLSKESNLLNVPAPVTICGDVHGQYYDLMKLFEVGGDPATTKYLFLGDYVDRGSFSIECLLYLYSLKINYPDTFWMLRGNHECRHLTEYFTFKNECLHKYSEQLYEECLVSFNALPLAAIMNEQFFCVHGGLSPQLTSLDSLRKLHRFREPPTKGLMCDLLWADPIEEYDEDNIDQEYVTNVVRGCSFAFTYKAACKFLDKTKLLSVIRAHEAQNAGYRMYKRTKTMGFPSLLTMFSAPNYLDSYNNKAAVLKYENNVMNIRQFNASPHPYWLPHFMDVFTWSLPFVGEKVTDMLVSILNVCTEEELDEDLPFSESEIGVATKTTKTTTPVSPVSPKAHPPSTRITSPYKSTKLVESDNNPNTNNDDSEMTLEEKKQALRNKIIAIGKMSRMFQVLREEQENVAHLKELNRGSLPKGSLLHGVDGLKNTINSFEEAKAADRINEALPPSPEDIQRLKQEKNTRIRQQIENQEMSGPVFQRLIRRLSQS

[6] = molecular target: ATP-dependent molecular chaperone HSP82 (Candida albicans (strain WO-1) (Yeast), UniProt C4YTQ8); assay: loss of DOC-induced GRE-beta-galactosidase reporter signal, dose response, Hsp90 inhibitor project, S. cerevisiae, luminescence (AID 2400); type: functional, cell-based;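 further: beta-galactosidase luminescence from glucocorticoid response element reporter as proxy for Hsp90 function; inhibitor potency where signal loss means Hsp90 inhibition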
[7] = molecular target: T2, Short transient receptor potential channel 4 (Mus musculus, UniProt Q9QUQ5); assay: mouse TRPC4 channel activators, dose response, cell-based, HEK293 TRPC4/mu-opioid, Fluo-4 calcium (AID 434937); type: functional
T2 sequence (Q9QUQ5 whole entry): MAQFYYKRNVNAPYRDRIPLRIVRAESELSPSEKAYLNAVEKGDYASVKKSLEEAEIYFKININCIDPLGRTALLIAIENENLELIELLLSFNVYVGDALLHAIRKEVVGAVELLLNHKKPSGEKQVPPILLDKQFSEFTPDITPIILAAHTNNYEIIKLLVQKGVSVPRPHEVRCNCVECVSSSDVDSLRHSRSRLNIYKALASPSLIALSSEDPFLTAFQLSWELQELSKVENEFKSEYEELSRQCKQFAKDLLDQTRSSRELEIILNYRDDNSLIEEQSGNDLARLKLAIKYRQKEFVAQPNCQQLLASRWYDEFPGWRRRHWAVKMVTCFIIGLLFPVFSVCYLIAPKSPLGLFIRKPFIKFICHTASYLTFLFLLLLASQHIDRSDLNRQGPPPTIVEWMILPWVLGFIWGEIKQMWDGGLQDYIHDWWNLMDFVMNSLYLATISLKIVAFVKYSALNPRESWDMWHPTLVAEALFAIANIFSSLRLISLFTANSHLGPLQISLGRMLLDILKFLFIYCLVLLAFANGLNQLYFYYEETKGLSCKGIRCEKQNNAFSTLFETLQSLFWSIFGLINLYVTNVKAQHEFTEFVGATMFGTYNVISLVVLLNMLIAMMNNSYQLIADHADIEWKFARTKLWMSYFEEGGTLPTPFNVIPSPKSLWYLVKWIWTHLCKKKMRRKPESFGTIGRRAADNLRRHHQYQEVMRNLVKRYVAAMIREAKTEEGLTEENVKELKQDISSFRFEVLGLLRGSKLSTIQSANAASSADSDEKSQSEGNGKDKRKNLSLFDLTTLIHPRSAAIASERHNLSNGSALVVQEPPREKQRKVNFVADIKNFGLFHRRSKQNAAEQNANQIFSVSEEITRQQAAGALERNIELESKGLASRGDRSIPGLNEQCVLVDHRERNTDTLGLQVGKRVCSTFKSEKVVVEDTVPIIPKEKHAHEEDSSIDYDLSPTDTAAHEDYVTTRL

[8] = molecular target: T3, Carboxy-terminal domain RNA polymerase II polypeptide A small phosphatase 1 (Homo sapiens, UniProt Q9GZU7); assay: inhibitors of CTDSP1, concentration-response testing, biochemical assay, absorbance-based, actives from ultra-high-throughput screening (AID 540297); type: functional
T3 sequence (Q9GZU7 whole entry): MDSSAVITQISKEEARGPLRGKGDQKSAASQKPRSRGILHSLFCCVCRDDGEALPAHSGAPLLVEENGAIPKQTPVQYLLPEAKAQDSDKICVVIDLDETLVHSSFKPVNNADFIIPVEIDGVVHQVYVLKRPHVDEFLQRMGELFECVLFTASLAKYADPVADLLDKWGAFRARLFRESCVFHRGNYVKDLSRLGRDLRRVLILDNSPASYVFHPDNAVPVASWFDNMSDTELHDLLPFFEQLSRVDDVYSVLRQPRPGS

[9] = inhibitors of HIV Env-driven cell fusion, dose response, cherry-pick (AID 652057); type: functional, cell-based
[10] = off-target signal loss in HeLa-CEM21 co-culture – HeLa F-luc CTL cells, cherry-picked, counter-screen for HIV-1 Env fusion inhibitor project, dose response (AID 652040); type: functional, cell-based;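 further: potency for signal decrease marking cytotoxic or nonspecific inhibition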
[11] = inhibitors of clade B AD8 Env fusion, dose response, cell-based, cherry-pick (AID 652062); type: functional;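 further: luciferase signal from cell-cell fusion driven by HIV-1 clade B AD8 Env; potency is for inhibitors of fusion seen as a drop in luminescence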
cells [12] = type: functional, cell-based
cells [13] = type: functional, cell-based; remark: listed apart in the source
[14] = Luminescence Cell-Based Dose Retest to Confirm Inhibitors of Cancer Stem Cells. [Related pubchem assays (depositor defined):AID2717, AID2721]; type: functional; settings: Homo sapiens
[15] = molecular target: T4, Replicative DNA helicase DnaB (Mycobacterium tuberculosis, UniProt P9WMR3); assay: DnaB intein splicing inhibitors, dose response, biochemical, cell-free fluorescence (AID 449749); type: functional
T4 sequence (P9WMR3 whole entry): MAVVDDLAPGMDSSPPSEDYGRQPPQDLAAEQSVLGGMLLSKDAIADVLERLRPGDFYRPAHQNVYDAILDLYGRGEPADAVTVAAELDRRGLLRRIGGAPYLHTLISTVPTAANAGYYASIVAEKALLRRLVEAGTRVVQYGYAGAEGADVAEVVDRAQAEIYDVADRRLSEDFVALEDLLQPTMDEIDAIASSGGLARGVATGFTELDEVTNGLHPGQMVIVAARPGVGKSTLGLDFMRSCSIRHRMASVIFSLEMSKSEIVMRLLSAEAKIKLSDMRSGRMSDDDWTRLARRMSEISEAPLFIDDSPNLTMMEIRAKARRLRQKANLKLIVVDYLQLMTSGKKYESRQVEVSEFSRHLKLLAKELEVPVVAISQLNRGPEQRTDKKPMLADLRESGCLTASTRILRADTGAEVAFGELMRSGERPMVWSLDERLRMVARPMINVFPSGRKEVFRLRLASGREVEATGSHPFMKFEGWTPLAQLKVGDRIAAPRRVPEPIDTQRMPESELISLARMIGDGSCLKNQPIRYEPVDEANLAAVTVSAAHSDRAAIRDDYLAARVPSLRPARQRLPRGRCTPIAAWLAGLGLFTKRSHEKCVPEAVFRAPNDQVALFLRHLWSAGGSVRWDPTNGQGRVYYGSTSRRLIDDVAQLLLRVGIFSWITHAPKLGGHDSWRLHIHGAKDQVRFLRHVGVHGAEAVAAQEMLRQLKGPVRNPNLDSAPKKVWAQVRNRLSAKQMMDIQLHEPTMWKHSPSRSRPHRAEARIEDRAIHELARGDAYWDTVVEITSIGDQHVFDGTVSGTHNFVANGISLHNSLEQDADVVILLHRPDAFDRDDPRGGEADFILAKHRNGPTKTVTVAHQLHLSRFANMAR

Protein RecA = molecular target: T5, Protein RecA (Mycobacterium tuberculosis, UniProt P9WHJ3); assay: Fluorescence Cell-Free Homogeneous Dose Retest to Identify Inhibitors of RecA-Intein Splicing Activity. [Related pubchem assays (depositor defined):AID2097, AID2223, AID489010, AID492950]; type: functional
T5 sequence (P9WHJ3 whole entry): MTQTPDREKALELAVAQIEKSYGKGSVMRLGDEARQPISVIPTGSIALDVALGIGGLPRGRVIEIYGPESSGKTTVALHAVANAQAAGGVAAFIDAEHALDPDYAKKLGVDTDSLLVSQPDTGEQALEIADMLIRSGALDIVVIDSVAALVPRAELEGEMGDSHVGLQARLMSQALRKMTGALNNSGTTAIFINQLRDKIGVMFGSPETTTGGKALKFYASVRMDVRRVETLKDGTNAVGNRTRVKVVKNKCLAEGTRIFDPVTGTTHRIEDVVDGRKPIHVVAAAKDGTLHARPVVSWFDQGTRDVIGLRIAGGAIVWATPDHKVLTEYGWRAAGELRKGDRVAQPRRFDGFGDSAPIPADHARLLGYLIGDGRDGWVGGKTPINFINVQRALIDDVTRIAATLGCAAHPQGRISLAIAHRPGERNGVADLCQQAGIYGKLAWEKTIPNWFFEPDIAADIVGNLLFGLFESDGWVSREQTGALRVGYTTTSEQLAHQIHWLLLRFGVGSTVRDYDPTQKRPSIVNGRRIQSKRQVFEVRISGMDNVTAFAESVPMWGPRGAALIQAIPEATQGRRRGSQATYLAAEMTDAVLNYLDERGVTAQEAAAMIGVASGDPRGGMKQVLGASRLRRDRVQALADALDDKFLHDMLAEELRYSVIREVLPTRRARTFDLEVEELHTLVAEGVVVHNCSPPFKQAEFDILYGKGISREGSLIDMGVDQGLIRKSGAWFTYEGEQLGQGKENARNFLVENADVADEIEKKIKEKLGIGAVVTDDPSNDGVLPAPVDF

Vero = assay: cells; type: functional; settings: Chlorocebus sabaeus
[16] = molecular target: T2, Short transient receptor potential channel 4; assay: mouse TRPC4 channel inhibitors, dose response, cell-based, HEK293 TRPC4/mu-opioid, Fluo-4 calcium (AID 434942); type: functional;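 further: potency of inhibitors blocking the TRPC4 calcium response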
[17] = inhibitors of intracellular T. cruzi replication, confirmation, NIH3T3 host cells, beta-gal luminescence (AID 2044); type: functional, cell-based;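 further: intracellular parasites grown in NIH/3T3 mouse fibroblasts as host cells; luminescent beta-galactosidase reporter signal from transgenic T. cruzi replicating inside host cells; inhibitors lower the luminescence signal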
[18] = cytotoxicity toward NIH3T3 fibroblasts, dose response, counter-screen, cell-based, ATP luminescence, mouse fibroblasts (AID 2010); type: functional;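 further: cells exposed to compound for about 90 hours before reading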
[19] = THP-1 cell cytotoxicity, dose response, cytotoxicity control for non-replicating M. tuberculosis project (AID 489025); type: functional
cells [20] = type: functional

Sequence of 5-hydroxytryptamine receptor 5A (P47898 whole entry): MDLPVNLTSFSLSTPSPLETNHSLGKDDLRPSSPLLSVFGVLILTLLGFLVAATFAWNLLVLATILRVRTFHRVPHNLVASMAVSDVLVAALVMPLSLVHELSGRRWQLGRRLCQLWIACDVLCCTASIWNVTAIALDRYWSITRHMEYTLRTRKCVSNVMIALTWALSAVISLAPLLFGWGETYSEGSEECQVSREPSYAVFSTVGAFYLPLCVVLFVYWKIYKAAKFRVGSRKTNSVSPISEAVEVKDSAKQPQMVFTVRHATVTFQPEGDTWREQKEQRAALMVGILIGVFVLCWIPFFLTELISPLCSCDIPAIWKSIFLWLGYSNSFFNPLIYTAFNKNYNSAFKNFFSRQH
Sequence of Delta-type opioid receptor (P41143 whole entry): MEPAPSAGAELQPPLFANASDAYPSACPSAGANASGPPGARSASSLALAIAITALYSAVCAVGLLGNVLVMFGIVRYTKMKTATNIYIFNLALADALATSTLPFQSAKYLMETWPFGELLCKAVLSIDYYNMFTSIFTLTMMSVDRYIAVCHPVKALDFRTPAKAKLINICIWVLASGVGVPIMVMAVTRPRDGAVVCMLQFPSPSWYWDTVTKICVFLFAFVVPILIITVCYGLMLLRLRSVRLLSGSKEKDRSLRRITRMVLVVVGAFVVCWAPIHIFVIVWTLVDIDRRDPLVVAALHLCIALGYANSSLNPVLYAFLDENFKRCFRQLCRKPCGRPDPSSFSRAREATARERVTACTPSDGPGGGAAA
Sequence of Mu-type opioid receptor (P35372 whole entry): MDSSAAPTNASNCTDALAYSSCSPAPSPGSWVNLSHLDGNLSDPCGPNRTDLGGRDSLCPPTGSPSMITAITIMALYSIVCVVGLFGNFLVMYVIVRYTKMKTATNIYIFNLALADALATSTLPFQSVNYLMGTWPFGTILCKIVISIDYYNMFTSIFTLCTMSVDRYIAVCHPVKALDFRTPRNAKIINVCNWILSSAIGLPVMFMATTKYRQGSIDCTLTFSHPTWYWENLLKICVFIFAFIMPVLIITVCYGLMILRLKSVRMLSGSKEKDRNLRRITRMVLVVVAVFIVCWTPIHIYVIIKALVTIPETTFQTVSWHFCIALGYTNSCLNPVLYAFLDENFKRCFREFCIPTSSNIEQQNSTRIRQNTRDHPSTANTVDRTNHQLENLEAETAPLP
Sequence of ATP-dependent molecular chaperone HSP82 (C4YTQ8 whole entry): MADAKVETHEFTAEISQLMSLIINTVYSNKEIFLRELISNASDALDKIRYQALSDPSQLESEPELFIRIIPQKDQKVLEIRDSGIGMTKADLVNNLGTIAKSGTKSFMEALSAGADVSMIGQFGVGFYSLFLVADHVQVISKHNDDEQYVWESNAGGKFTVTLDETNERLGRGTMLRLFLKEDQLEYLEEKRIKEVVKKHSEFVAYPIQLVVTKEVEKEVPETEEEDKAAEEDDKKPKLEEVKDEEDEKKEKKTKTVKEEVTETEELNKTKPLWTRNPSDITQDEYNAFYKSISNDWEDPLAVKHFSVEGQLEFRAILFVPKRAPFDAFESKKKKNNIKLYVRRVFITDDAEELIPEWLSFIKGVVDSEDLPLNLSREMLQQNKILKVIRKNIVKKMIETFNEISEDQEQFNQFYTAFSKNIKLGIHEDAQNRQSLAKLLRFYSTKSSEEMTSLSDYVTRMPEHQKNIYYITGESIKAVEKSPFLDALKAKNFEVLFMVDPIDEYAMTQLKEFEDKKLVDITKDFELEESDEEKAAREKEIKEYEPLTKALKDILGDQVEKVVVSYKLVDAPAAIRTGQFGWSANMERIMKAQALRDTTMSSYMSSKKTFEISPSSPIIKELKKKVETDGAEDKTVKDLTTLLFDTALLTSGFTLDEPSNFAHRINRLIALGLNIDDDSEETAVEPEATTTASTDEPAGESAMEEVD

c1ccc(C2(N3CCCCC3)CCCCC2)cc1 [PHENCYCLIDINE HYDROCHLORIDE]
EC50 [1]: 33.6 µM (inactive)
EC50 (Mu-type opioid receptor): 6.29 µM (active)
EC50 [2]: > 92.5 µM (inactive)

Cc1ccc(C(=O)Nc2cccc(-c3cn4ccccc4n3)c2)cc1
EC50 [3]: > 150 µM (inactive)
EC50 [4]: 0.628 µM (active)
EC50 [5]: > 180 µM (inactive)
EC50 [6]: > 160 µM (inactive)

Cc1ccccc1[N+]1=C2SCCN2C(O)(c2ccccc2)C1 (stereo not given)
EC50 [7]: 0.335 µM (active)
EC50 [1]: > 92.5 µM (inactive)
EC50 (Mu-type opioid receptor): 18.7 µM (inactive)
EC50 [2]: > 92.5 µM (inactive)

CSc1cccc(N2CC(C(=O)Nc3cccc(S(=O)(=O)N4CCCC4)c3)CC2=O)c1 (stereo not given)
IC50 [8]: 6.81 µM (active)
AC50 [9]: 17.8 µM (active)
AC50 [10]: > 70 µM (inactive)
AC50 [11]: 11.7 µM (active)

CC(=O)Nc1ccc(S(=O)(=O)NCCC(=O)OCC(=O)N2CCN(C(=O)c3ccco3)CC2)cc1
IC50 [8]: 10.3 µM (active)

Cc1ccc(-c2nnc(Sc3nc4ccccc4o3)c3ccccc23)cc1
EC50 (cells [12]): > 350 µM (not active)
EC50 (cells [13]): > 350 µM (not active)
AC50 [14]: 6.09 µM (active)
AC50 [15]: 2.39 µM (active)
EC50 (Protein RecA): 0.396 µM (active)
CC50 (Vero): > 25 µM (active)

COc1cccc(/C=C2/SC(=S)N(CCC(=O)N3CCOCC3)C2=O)c1
CC50 (Vero): 20.1 µM (active)

COc1ccc(C(=O)N/N=C/c2ccc(OC(=O)c3cccc4ccccc34)c([N+](=O)[O-])c2)cc1
IC50 [8]: 2.4 µM (active)

O=C(O)c1cc(-c2ccc(/C=C3\NC(=O)N(c4ccccc4)C3=O)o2)ccc1Cl
IC50 [8]: 5.09 µM (active)

O=c1c2ccc(Cl)cc2[nH]c(=S)n1Cc1cccnc1
EC50 [1]: 43.2 µM (inactive)
EC50 (Mu-type opioid receptor): 65.6 µM (inactive)
EC50 [2]: > 92.5 µM (inactive)

CN(C)C(CNC(=O)c1ccc(C(F)(F)F)cc1)c1ccco1 (stereo not given)
EC50 [16]: 0.0533 µM (active)
EC50 [7]: 0.267 µM (active)
EC50 [1]: 91 µM (inactive)
EC50 (Mu-type opioid receptor): > 92.4 µM (inactive)
EC50 [2]: > 92.4 µM (inactive)

C/C(=N/Nc1ccnc2cc(Cl)ccc12)c1ccc(N)cc1
EC50 [17]: 3.31 µM (active)
EC50 [18]: > 60 µM (not active)
CC50 [19]: 23.4 µM (active)
IC50 (cells [20]): 29 µM (active)
EC50 [1]: 29.5 µM (inactive)
EC50 (Mu-type opioid receptor): 54.7 µM (inactive)
EC50 [2]: > 92.4 µM (inactive)
